Measurements: patent publication US20230018423A1, “BENZIMIDAZOLE DERIVATIVES FOR TREATMENT AND/OR PREVENTION OF DISEASES AND DISORDERS MEDIATED BY NLRP3” (YODA PHARMACEUTICALS INC., priority 2021, published 2023)

What was measured:
TNF-α = assay: Inflammation cytokine ELISA in the cerebellum of TgM83 mice: TNF-α; format: in vivo, mouse; details: 30 mg/kg oral gavage, sacrificed after 20 minutes, P<0.05, FIG. 5C
Description: (§1) To characterize the inflammatory response after RS-D7 treatment, the level of inflammation cytokines, including interleukin-1 beta (IL-1β), interleukin-6 (IL-6), and Tumor Necrosis Factor-α (TNF-α), were examined in the cerebellum of male TgM83 and WT littermate mice (n=5 each) using enzyme-linked immunosorbent assay (ELISA). All the animals were sacrificed after 20-minutes RS-D7 treatment and the tissue samples were taken from […] of the mouse brain from male WT littermates, TgM83 mice and TgM83 mice with RS-D7 treatment (30 mg/kg, P.O.). These samples were dissected on ice and then stored at −80° C. before use. The ELISA experiment was performed using commercial kits for IL-1β (88-7013, Invitrogen, USA), IL-6 (88-7064, Invitrogen, USA) and TNF-α (88-7324, Invitrogen, USA). Procedures were followed according to manufactures protocols. Standards and samples were run in triplicates. OD values were read at 450 nm using a microplate reader (ThermoFisher Scientific, USA). Calculation of concentrations were done according to manufactures protocol using standard curve methods.
(§2) All of the data are presented as the mean+SE of the mean (SEM). The data was analyzed with one-way ANOVA in behavioral results. A post-hoc analysis was performed with Fisher's LSD test when F values reaching significant difference. […]

IL-1β = assay: Inflammation cytokine ELISA in the cerebellum of TgM83 mice: IL-1β; format: in vivo, mouse; details: 30 mg/kg oral gavage, sacrificed after 20 minutes, P<0.05, FIG. 5A
Description: as §1, §2

NLRP3 inflammasome [1] = biological target: T1, NLRP3 inflammasome (Homo sapiens, UniProt Q96P20); assay: NLRP3 inflammasome assay, IL-1β ELISA in LPS- and MSU-treated THP-1 cells; details: 50 ng/mL LPS + 400 ug/ml MSU, compared to the LPS+MSU group, RS-D7 0.1-5 uM, others 0.2-5 uM, FIG. 2B
T1 sequence (Q96P20 whole entry): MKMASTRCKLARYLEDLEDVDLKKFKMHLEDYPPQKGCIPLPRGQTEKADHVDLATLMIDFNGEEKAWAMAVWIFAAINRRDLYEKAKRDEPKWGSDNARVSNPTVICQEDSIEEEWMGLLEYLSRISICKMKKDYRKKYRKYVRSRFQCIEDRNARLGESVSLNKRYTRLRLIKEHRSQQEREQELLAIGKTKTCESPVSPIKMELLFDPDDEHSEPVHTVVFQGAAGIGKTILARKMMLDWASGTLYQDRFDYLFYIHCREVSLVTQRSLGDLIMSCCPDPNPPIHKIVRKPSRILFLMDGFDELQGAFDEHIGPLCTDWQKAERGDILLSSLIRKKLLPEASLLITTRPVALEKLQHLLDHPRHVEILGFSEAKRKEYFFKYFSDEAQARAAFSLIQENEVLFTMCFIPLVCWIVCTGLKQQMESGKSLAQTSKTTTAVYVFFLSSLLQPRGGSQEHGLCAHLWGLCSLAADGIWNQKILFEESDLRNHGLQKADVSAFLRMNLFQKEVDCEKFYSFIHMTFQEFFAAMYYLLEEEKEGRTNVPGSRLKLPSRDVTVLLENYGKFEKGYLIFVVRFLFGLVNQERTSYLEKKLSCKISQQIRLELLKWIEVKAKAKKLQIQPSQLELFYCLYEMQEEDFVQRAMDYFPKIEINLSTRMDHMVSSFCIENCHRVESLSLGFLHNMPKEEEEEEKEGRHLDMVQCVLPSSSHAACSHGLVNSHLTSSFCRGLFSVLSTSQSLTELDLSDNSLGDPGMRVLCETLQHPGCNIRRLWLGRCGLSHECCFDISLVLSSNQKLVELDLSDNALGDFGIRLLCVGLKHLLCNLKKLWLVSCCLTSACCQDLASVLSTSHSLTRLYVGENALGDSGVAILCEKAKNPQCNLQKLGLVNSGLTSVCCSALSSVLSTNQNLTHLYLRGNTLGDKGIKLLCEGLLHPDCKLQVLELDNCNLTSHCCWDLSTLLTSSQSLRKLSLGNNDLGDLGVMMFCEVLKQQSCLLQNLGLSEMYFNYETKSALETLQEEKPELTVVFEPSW
Description: (§3) The assays were conducted using Human promonocytic leukemia THP-1 cells.
(§4) Human promonocytic leukemia THP-1 cells were cultured in RPMI and treated with Phorbol 12-myristate 13-acetate (PMA). […] The supernatant of PMA-differentiated THP-1 cells was collected at given time points after stimulation, and IL-1β level in cell culture supernatant was determined using IL-1 beta Human Uncoated ELISA Kit (Invitrogen). Supernatants and cell lysate were also evaluated by immunoblotting methods. The immunoreactive signals were developed using Immobilon Crescendo Western HRP substrate and the digitized image of the membrane was detected by ImageQuant LAS 4000mini (GE) according to the manufacturer's instructions.

NLRP3 inflammasome [2] = biological target: T1, NLRP3 inflammasome; assay: NLRP3 inflammasome assay, IL-1β ELISA in LPS- and ATP-treated THP-1 cells; details: 50 ng/mL LPS + 5 mM ATP, compared to the LPS+ATP group, MCC950 1 uM, RS-D7 0.1-5 uM, others 0.2-5 uM, FIG. 2A
Description: as §3, §4

TgM83 mice [3] = assay: Rotarod task (motor coordination) in TgM83 mouse model; format: in vivo
TgM83 mice [4] = assay: Open field task (locomotion activity) in TgM83 mouse model; format: in vivo
NLRP3 inflammasome [5] = biological target: T1, NLRP3 inflammasome; assay: NLRP3 inflammasome assay, western blot (immunoblotting) of LPS+MSU-treated PMA-primed THP-1 cells; details: MCC950 1 uM, RS-D7 0.1, 1 and 5 uM, FIG. 1
Description: as §3, §4

IL-6 = assay: Inflammation cytokine ELISA in the cerebellum of TgM83 mice: IL-6; format: in vivo, mouse; details: 30 mg/kg oral gavage, sacrificed after 20 minutes, P<0.05, FIG. 5B
Description: as §1, §2

IL-1β level in cell culture supernatant (ELISA) (NLRP3 inflammasome [1])	IL-1β level in cell culture supernatant (ELISA) (NLRP3 inflammasome [2])	expression of IL-1β (western blot) (NLRP3 inflammasome [5])	expression of caspase-1 (western blot) (NLRP3 inflammasome [5])	SMILES	TNF-α level in the cerebellum (ELISA) (TNF-α)	IL-1β level in the cerebellum (ELISA) (IL-1β)	prolonging of the falling latency versus TgM83 vehicle mice (TgM83 mice [3]; 30 mg/kg oral gavage, P<0.05)	falling latency on the rotarod (TgM83 mice [3]; single dose 30 mg/kg PO, accelerating 4-40 rpm, mean±sem, TgM83 vehicle 55.3±10.4, WT 99.5±7.5)	increase of distance moved versus TgM83 vehicle mice (rescue of hypolocomotion) (TgM83 mice [4]; 30 mg/kg oral gavage, one hour, P<0.05)	total distance moved in the open field test (TgM83 mice [4]; 12-month-old, single dose 30 mg/kg PO, 1-hour period, mean±sem, TgM83 vehicle 15,472±942, WT 21,552±1,269)	IL-6 level in the cerebellum (ELISA) (IL-6)
significantly lower levels	significantly lower levels	dose-dependent inhibition	dose-dependent inhibition	COc1c(C)cnc(C[S+]([O-])c2nc3ccc(O)cc3[nH]2)c1C (stereo not drawn) [RS-D7, 5-O-Desmethyl-Omeprazole]	significantly inhibit the overexpression	significantly inhibit the overexpression	76.8 s	132.1 ± 16.1 s	5,007 cm	20,479±730 cm	significantly inhibit the overexpression
significantly lower levels	significantly lower levels			COc1c(C)cnc(CSc2nc3cc(C(=O)O)ccc3n2CCC2=CCCCC2)c1C [compound 12083, 1-(2-(cyclohex-1-en-1-yl)ethyl)-2-(((4-methoxy-3,5-dimethylpyridin-2-yl)methyl)thio)-1H-benzo[d]imidazole-5-carboxylic acid]							

SMILES	IL-1β level in cell culture supernatant (ELISA) (NLRP3 inflammasome [1])	IL-1β level in cell culture supernatant (ELISA) (NLRP3 inflammasome [2])	expression of IL-1β (western blot) (NLRP3 inflammasome [5])	expression of caspase-1 (western blot) (NLRP3 inflammasome [5])	TNF-α level in the cerebellum (ELISA) (TNF-α)	IL-1β level in the cerebellum (ELISA) (IL-1β)	prolonging of the falling latency versus TgM83 vehicle mice (TgM83 mice [3]; 30 mg/kg oral gavage, P<0.05)	falling latency on the rotarod (TgM83 mice [3]; single dose 30 mg/kg PO, accelerating 4-40 rpm, mean±sem, TgM83 vehicle 55.3±10.4, WT 99.5±7.5)	increase of distance moved versus TgM83 vehicle mice (rescue of hypolocomotion) (TgM83 mice [4]; 30 mg/kg oral gavage, one hour, P<0.05)	total distance moved in the open field test (TgM83 mice [4]; 12-month-old, single dose 30 mg/kg PO, 1-hour period, mean±sem, TgM83 vehicle 15,472±942, WT 21,552±1,269)	IL-6 level in the cerebellum (ELISA) (IL-6)
COc1c(C)cnc(CSc2nc3cc(OC(=O)CNC(=O)OC(C)(C)C)ccc3[nH]2)c1C [compound 12093, 2-(((4-methoxy-3,5-dimethylpyridin-2-yl)methyl)thio)-1H-benzo[d]imidazol-5-yl (tert-butoxycarbonyl)glycinate]	significantly lower levels	significantly lower levels									
